Measured values published in ChEMBL document CHEMBL3045821, “Microwave-assisted synthesis of 3-indolyl substituted 4H-chromenes catalyzed by DMAP and their antimicrobial activity” (2012).
In brackets after ≈: the same amount, converted by molar mass.

Key:
Format in all cases: functional
Bacillus subtilis = assay: Antibacterial activity against Bacillus subtilis MTCC 441 after 24 to 48 hr by broth microdilution method
Escherichia coli = assay: Antibacterial activity against Escherichia coli MTCC 443 after 24 to 48 hr by broth microdilution method
Salmonella typhi = assay: Antibacterial activity against Salmonella enterica subsp. enterica serovar Typhi MTCC 98 after 24 to 48 hr by broth microdilution method
Vibrio cholerae = assay: Antibacterial activity against Vibrio cholerae MTCC 3906 after 24 to 48 hr by broth microdilution method
Clostridium tetani = assay: Antibacterial activity against Clostridium tetani MTCC 449 after 24 to 48 hr by broth microdilution method
Streptococcus pneumoniae = assay: Antibacterial activity against Streptococcus pneumoniae MTCC 1936 after 24 to 48 hr by broth microdilution method
Candida albicans = assay: Antifungal activity against Candida albicans MTCC 227 after 24 to 48 hr by broth microdilution method
Aspergillus fumigatus = assay: Antifungal activity against Aspergillus fumigatus MTCC 3008 after 24 to 48 hr by broth microdilution method

Compound | MIC (Bacillus subtilis) | MIC (Escherichia coli) | MIC (Salmonella typhi) | MIC (Vibrio cholerae) | MIC (Clostridium tetani) | MIC (Streptococcus pneumoniae) | MIC (Candida albicans) | MIC (Aspergillus fumigatus)
CC1(C)S[C@@H]2[C@H](NC(=O)[C@H](N)c3ccccc3)C(=O)N2[C@H]1C(=O)O [AMPICILLIN] | 250 µg/mL (≈ 715 µM) | 100 µg/mL (≈ 286 µM) | 100 µg/mL (≈ 286 µM) | 100 µg/mL (≈ 286 µM) | 250 µg/mL (≈ 715 µM) | 100 µg/mL (≈ 286 µM) | – | –
CC1(C)CC(=O)C2=C(C1)OC(N)=C(C#N)C2c1c(-c2ccc(Cl)cc2)[nH]c2ccccc12 (stereo not drawn) | 250 µg/mL (≈ 563 µM) | 62.5 µg/mL (≈ 141 µM) | 200 µg/mL (≈ 451 µM) | 100 µg/mL (≈ 225 µM) | 250 µg/mL (≈ 563 µM) | 250 µg/mL (≈ 563 µM) | > 1000 µg/mL | > 1000 µg/mL
NYSTATIN | – | – | – | – | – | – | 100 µg/mL | 100 µg/mL
N#CC1=C(N)OC2=C(C(=O)CCC2)C1c1c(-c2ccc(F)cc2)[nH]c2ccccc12 (stereo not drawn) | 200 µg/mL (≈ 501 µM) | 500 µg/mL (≈ 1250 µM) | 500 µg/mL (≈ 1250 µM) | 250 µg/mL (≈ 626 µM) | 500 µg/mL (≈ 1250 µM) | 200 µg/mL (≈ 501 µM) | 500 µg/mL (≈ 1250 µM) | 1000 µg/mL (≈ 2500 µM)
CC1(C)CC(=O)C2=C(C1)OC(N)=C(C#N)C2c1c(-c2ccc(S(C)(=O)=O)cc2)[nH]c2ccccc12 (stereo not drawn) | 250 µg/mL (≈ 513 µM) | 100 µg/mL (≈ 205 µM) | 200 µg/mL (≈ 410 µM) | 500 µg/mL (≈ 1030 µM) | 125 µg/mL (≈ 256 µM) | 500 µg/mL (≈ 1030 µM) | 250 µg/mL (≈ 513 µM) | 500 µg/mL (≈ 1030 µM)
N#CC1=C(N)OC2=C(C(=O)CCC2)C1c1c(-c2ccc(Br)cc2)[nH]c2ccccc12 (stereo not drawn) | 200 µg/mL (≈ 434 µM) | 125 µg/mL (≈ 272 µM) | 200 µg/mL (≈ 434 µM) | 200 µg/mL (≈ 434 µM) | 200 µg/mL (≈ 434 µM) | 100 µg/mL (≈ 217 µM) | 500 µg/mL (≈ 1090 µM) | 500 µg/mL (≈ 1090 µM)
N#CC1=C(N)OC2=C(C(=O)CCC2)C1c1c(-c2ccc(Cl)cc2)[nH]c2ccccc12 (stereo not drawn) | 200 µg/mL (≈ 481 µM) | 100 µg/mL (≈ 240 µM) | 125 µg/mL (≈ 301 µM) | 100 µg/mL (≈ 240 µM) | 500 µg/mL (≈ 1200 µM) | 200 µg/mL (≈ 481 µM) | > 1000 µg/mL | 1000 µg/mL (≈ 2400 µM)
COc1ccc(-c2[nH]c3ccccc3c2C2C(C#N)=C(N)OC3=C2C(=O)CC(C)(C)C3)cc1 (stereo not drawn) | 500 µg/mL (≈ 1140 µM) | 500 µg/mL (≈ 1140 µM) | 500 µg/mL (≈ 1140 µM) | 500 µg/mL (≈ 1140 µM) | 500 µg/mL (≈ 1140 µM) | 500 µg/mL (≈ 1140 µM) | 500 µg/mL (≈ 1140 µM) | > 1000 µg/mL
COc1ccc(-c2[nH]c3ccccc3c2C2C(C#N)=C(N)OC3=C2C(=O)CCC3)cc1 (stereo not drawn) | 250 µg/mL (≈ 608 µM) | 100 µg/mL (≈ 243 µM) | 200 µg/mL (≈ 486 µM) | 200 µg/mL (≈ 486 µM) | 100 µg/mL (≈ 243 µM) | 200 µg/mL (≈ 486 µM) | 500 µg/mL (≈ 1220 µM) | 1000 µg/mL (≈ 2430 µM)
O=C(O)c1cn(C2CC2)c2cc(N3CCNCC3)c(F)cc2c1=O [CIPROFLOXACIN] | – | 25 µg/mL (≈ 75.4 µM) | 25 µg/mL (≈ 75.4 µM) | 25 µg/mL (≈ 75.4 µM) | – | 50 µg/mL (≈ 151 µM) | – | –
N#CC1=C(N)OC2=C(C(=O)CCC2)C1c1c(-c2ccc([N+](=O)[O-])cc2)[nH]c2ccccc12 (stereo not drawn) | 250 µg/mL (≈ 586 µM) | 500 µg/mL (≈ 1170 µM) | 500 µg/mL (≈ 1170 µM) | 500 µg/mL (≈ 1170 µM) | 250 µg/mL (≈ 586 µM) | 250 µg/mL (≈ 586 µM) | 200 µg/mL (≈ 469 µM) | 500 µg/mL (≈ 1170 µM)
CC1(C)CC(=O)C2=C(C1)OC(N)=C(C#N)C2c1c(-c2ccc(F)cc2)[nH]c2ccccc12 (stereo not drawn) | 100 µg/mL (≈ 234 µM) | 200 µg/mL (≈ 468 µM) | 250 µg/mL (≈ 585 µM) | 500 µg/mL (≈ 1170 µM) | 200 µg/mL (≈ 468 µM) | 200 µg/mL (≈ 468 µM) | 1000 µg/mL (≈ 2340 µM) | 250 µg/mL (≈ 585 µM)
Cc1ccc(-c2[nH]c3ccccc3c2C2C(C#N)=C(N)OC3=C2C(=O)CC(C)(C)C3)cc1 (stereo not drawn) | 250 µg/mL (≈ 590 µM) | 500 µg/mL (≈ 1180 µM) | 250 µg/mL (≈ 590 µM) | 500 µg/mL (≈ 1180 µM) | 250 µg/mL (≈ 590 µM) | 200 µg/mL (≈ 472 µM) | 500 µg/mL (≈ 1180 µM) | 1000 µg/mL (≈ 2360 µM)
CCn1cc(C(=O)O)c(=O)c2cc(F)c(N3CCNCC3)cc21 [NORFLOXACIN] | 100 µg/mL (≈ 313 µM) | 10 µg/mL (≈ 31.3 µM) | 10 µg/mL (≈ 31.3 µM) | 10 µg/mL (≈ 31.3 µM) | 50 µg/mL (≈ 157 µM) | 10 µg/mL (≈ 31.3 µM) | – | –
CC1(C)CC(=O)C2=C(C1)OC(N)=C(C#N)C2c1c(-c2ccc(Br)cc2)[nH]c2ccccc12 (stereo not drawn) | 200 µg/mL (≈ 410 µM) | 200 µg/mL (≈ 410 µM) | 250 µg/mL (≈ 512 µM) | 500 µg/mL (≈ 1020 µM) | 500 µg/mL (≈ 1020 µM) | 125 µg/mL (≈ 256 µM) | 1000 µg/mL (≈ 2050 µM) | 200 µg/mL (≈ 410 µM)
N#CC1=C(N)OC2=C(C(=O)CCC2)C1c1c(-c2ccccc2)[nH]c2ccccc12 (stereo not drawn) | 500 µg/mL (≈ 1310 µM) | 500 µg/mL (≈ 1310 µM) | 500 µg/mL (≈ 1310 µM) | 250 µg/mL (≈ 655 µM) | 500 µg/mL (≈ 1310 µM) | 500 µg/mL (≈ 1310 µM) | 1000 µg/mL (≈ 2620 µM) | 500 µg/mL (≈ 1310 µM)
CC1(C)CC(=O)C2=C(C1)OC(N)=C(C#N)C2c1c(-c2ccc([N+](=O)[O-])cc2)[nH]c2ccccc12 (stereo not drawn) | 500 µg/mL (≈ 1100 µM) | 250 µg/mL (≈ 550 µM) | 500 µg/mL (≈ 1100 µM) | 250 µg/mL (≈ 550 µM) | 200 µg/mL (≈ 440 µM) | 250 µg/mL (≈ 550 µM) | 200 µg/mL (≈ 440 µM) | 250 µg/mL (≈ 550 µM)
CS(=O)(=O)c1ccc(-c2[nH]c3ccccc3c2C2C(C#N)=C(N)OC3=C2C(=O)CCC3)cc1 (stereo not drawn) | 500 µg/mL (≈ 1090 µM) | 100 µg/mL (≈ 218 µM) | 100 µg/mL (≈ 218 µM) | 500 µg/mL (≈ 1090 µM) | 100 µg/mL (≈ 218 µM) | 500 µg/mL (≈ 1090 µM) | 1000 µg/mL (≈ 2180 µM) | 1000 µg/mL (≈ 2180 µM)
CC1(C)CC(=O)C2=C(C1)OC(N)=C(C#N)C2c1c(-c2ccccc2)[nH]c2ccccc12 (stereo not drawn) | 200 µg/mL (≈ 488 µM) | 500 µg/mL (≈ 1220 µM) | 500 µg/mL (≈ 1220 µM) | 200 µg/mL (≈ 488 µM) | 200 µg/mL (≈ 488 µM) | 200 µg/mL (≈ 488 µM) | 1000 µg/mL (≈ 2440 µM) | 500 µg/mL (≈ 1220 µM)
Cc1ccc(-c2[nH]c3ccccc3c2C2C(C#N)=C(N)OC3=C2C(=O)CCC3)cc1 (stereo not drawn) | 500 µg/mL (≈ 1260 µM) | 200 µg/mL (≈ 506 µM) | 250 µg/mL (≈ 632 µM) | 250 µg/mL (≈ 632 µM) | 500 µg/mL (≈ 1260 µM) | 500 µg/mL (≈ 1260 µM) | 1000 µg/mL (≈ 2530 µM) | 1000 µg/mL (≈ 2530 µM)
COC1=CC(=O)C[C@@H](C)[C@]12Oc1c(Cl)c(OC)cc(OC)c1C2=O [GRISEOFULVIN] | – | – | – | – | – | – | 500 µg/mL (≈ 1420 µM) | 100 µg/mL (≈ 283 µM)
